The numbers were not newly measured in patent publication US20060233843A1, “Treatment of psychosis with a muscarinic m1 receptor ectopic activator” (priority 2003, published 2006), which cites them from elsewhere.

For this data set, the target named is T1, M1 receptor, residue 381 mutated from tyrosine to alanine (Homo sapiens, UniProt P11229, Y381A).
T1 sequence (P11229 1-460 Y381A): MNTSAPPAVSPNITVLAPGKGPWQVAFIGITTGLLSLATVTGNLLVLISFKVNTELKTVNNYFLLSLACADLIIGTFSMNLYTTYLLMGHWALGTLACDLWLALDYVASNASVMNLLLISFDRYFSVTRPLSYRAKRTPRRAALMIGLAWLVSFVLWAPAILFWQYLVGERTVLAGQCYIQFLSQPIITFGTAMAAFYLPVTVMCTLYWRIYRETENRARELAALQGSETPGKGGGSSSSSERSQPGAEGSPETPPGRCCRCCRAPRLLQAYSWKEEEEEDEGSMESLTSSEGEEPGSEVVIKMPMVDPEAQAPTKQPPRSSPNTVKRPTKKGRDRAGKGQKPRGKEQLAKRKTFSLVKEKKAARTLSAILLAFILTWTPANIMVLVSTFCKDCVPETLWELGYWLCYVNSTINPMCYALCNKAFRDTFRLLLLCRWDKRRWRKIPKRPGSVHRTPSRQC
Conditions: M1 receptor Y381A mutant versus wild type.

With `CCCCC1CCN(CCCC(=O)c2ccccc2C)CC1` [AC-42], the “effect of mutation of residue 381 from tyrosine to alanine on pharmacology” value was “not affecting”.
Consider `Clc1ccc2c(c1)N=C(N1CCNCC1)c1ccccc1N2` [N-desmethylclozapine, Desmethylclozapine], for which the “increase of ectopic agonist potency by mutation of residue 381 from tyrosine to alanine” value is reported as 8 fold.
